Results from patent US20220065865A1, “METHODS OF TREATMENT AND DIAGNOSIS OF TUMOURS” (UEA ENTERPRISES LIMITED, priority 2018, published 2022).

Experiments:
[1] = system: chondrosarcoma tumour spheres (SW1353); experiment: Small molecule treatment of chondrosarcoma tumour spheres, nuclei counted by DAPI staining; type: cell-based, human; settings: bone 3D tumour spheres; for cancer cell number in comparison with Control 1: 72 hours, Control 1 = 0.1% DMSO
Method: (§1) SW1353 (chondrosarcoma) cells were cultured in 1:1 DMEM/F-12 Supplement (Thermo Fisher Scientific) containing 10% (volume/volume) fetal bovine serum (Sigma Aldrich). Cells were fed with culture medium every other day and maintained at 37° C. in a […] atmosphere of 5% CO2. Cells were obtained from ATCC and authenticated by STR profiling. Cells were regularly monitored for Mycoplasma infection by PCR. Phenotypic checks for interleukin 1 response ensured cell phenotype was maintained.
For the experiment reported in FIG. 8(b) the culture medium additionally contained 1% (v/v) penicillin streptomycin.
(§2) Tumour spheres were constructed as previously described (Greco, K. V. et al. High density micromass cultures of a human chondrocyte cell line: a reliable assay system to reveal the modulatory functions of pharmacological agents. Biochem Pharmacol 82, 1919-29 (2011), the contents of which are incorporated herein by reference). Briefly, 80% confluent monolayer cell cultures were released by trypsin-EDTA and resuspended in growth medium at a density of 4.1×10^4 cells/mL. Tumour spheres were achieved by pipetting 20 μL of cell suspension into individual wells of 24 well plates. Following a 3 hour intermolecular cohesion period 500 μL of growth medium was gently added. Cultures formed three dimensional spheres over the next 24 hours.
Growth media on chondrosarcoma tumour spheres was replaced with fresh media containing 0.1% DMSO (control 1), fresh media containing 0.2% DMSO (control 2), fresh media containing 50 μM small molecule 3-(N-(3,4-dichlorophenyl)carbamoyl)-5-norbornene-2-carboxylic acid, also named 3-{[(3,4-dichlorophenyl)amino]carbonyl}bicyclo[2.2.1]hept-5-ene-2-carboxylic acid, known as CADD522, fresh media containing 100 μM small molecule (CADD522). […] DAPI fluorescence was excited at 365 nm and emission collected between 420 and 470 nm. Nuclear DAPI staining was segmented with the number of the nuclei quantified using ImageJ. […] Statistical significance ([…]) was calculated using an unpaired t test with Prism 6.

SOX9 = experiment: qPCR transcriptional profiling of transfected tumour spheres: SOX9; type: cell-based, human; settings: 50 nM mimic, pooled RNA of 6 replicates, normalised to ACTB, compared to control tissue
Method: (§3) Once tumour spheres had formed, tRF mimics (RNA), tRF inhibitors (LNA), miRNA mimics (LNA) and miRNA inhibitors (LNA) (Exiqon) were transfected using Lipofectamine 3000 (Thermo Fisher Scientific) in reduced serum media (Thermo Fisher Scientific) for a final concentration of 50 nM consisting of equal parts of each mimic or inhibitor (sequences in Table 1 above). Confirmation of cell entry at 50 nM concentration was determined after performing the transfection with FAM labelled sequences. After 6 hours of incubation reduced serum media containing mimics or inhibitors was replaced with fresh growth media. Tumour spheres were subjected to histology, fluorescence microscopy and transcriptional profiling 48 hours later. Transfections were performed in triplicate in 3 independent experiments.
(§4) We used qPCR as previously described (Fricke, C., Green, D., Smith, D., Dalmay, T. & Chapman, T. MicroRNAs influence reproductive responses by females to male sex peptide in Drosophila melanogaster. Genetics 198, 1603-19 (2014), the contents of which are incorporated herein by reference). Due to a limited amount of RNA, qPCR was performed on pools of control tissue, low grade, intermediate grade and high grade tumours. We also extracted and pooled RNA from 6 replicates of tumour spheres treated with a tRF-Gly-TCC mimic. […]

ANG = experiment: qPCR transcriptional profiling of transfected tumour spheres: ANG; type: cell-based, human; settings: 50 nM mimic, pooled RNA of 6 replicates, normalised to ACTB
Method: as §3, §4

HDAC4 = experiment: qPCR transcriptional profiling of transfected tumour spheres: HDAC4; type: cell-based, human; settings: 50 nM mimic, pooled RNA of 6 replicates, normalised to ACTB, compared to high grade tumours
Method: as §3, §4

[2] = system: chondrosarcoma tumour spheres (SW1353); experiment: Tumour sphere assay with LNA and RNA transfection, histology and fluorescence microscopy; type: cell-based, human; settings: 50 nM, 48 hours after transfection
Method: as §1
as §2, with “Following a 3 hour intermolecular cohesion period 500 μL of growth medium was gently added. Cultures formed three dimensional spheres over the next 24 hours.” left out
as §3, with “After 6 hours of incubation reduced serum media containing mimics or inhibitors was replaced with fresh growth media.” left out, “Transfections were performed in triplicate in 3 independent experiments.” left out
Tumour spheres were fixed in 3.7% formaldehyde and treated with 0.2% Triton-X 100. […] DAPI fluorescence was excited at 365 nm and emission collected between 420 and 470 nm. Texas Red-X Phalloidin fluorescence was excited at 558 nm and emission collected through a 615 nm LP filter. Nuclear DAPI staining was segmented with the number and size of the nuclei quantified using ImageJ.

TP53 = experiment: qPCR transcriptional profiling of transfected tumour spheres: TP53; type: cell-based, human; settings: 50 nM mimic, pooled RNA of 6 replicates, normalised to ACTB, compared to control tissues
Method: as §3, §4

PTHLH = experiment: qPCR transcriptional profiling of transfected tumour spheres: PTHLH; type: cell-based, human; settings: 50 nM mimic, pooled RNA of 6 replicates, normalised to ACTB
Method: as §3, §4

RUNX2 = experiment: qPCR transcriptional profiling of transfected tumour spheres: RUNX2; type: cell-based, human; settings: 50 nM mimic, pooled RNA of 6 replicates, normalised to ACTB, compared to control tissue
Method: as §3, §4

IHH = experiment: qPCR transcriptional profiling of transfected tumour spheres: IHH; type: cell-based, human; settings: 50 nM mimic, pooled RNA of 6 replicates, normalised to ACTB
Method: as §3, §4

YBX1 [3] = molecular target: YBX1 (Homo sapiens, UniProt P67809); settings: Goodarzi et al., Cell 161, 790-802 (2015); cited from earlier work
YBX1 [4] = experiment: qPCR transcriptional profiling of transfected tumour spheres: YBX1; type: cell-based, human; settings: 50 nM mimic, pooled RNA of 6 replicates, normalised to ACTB
Method: as §3, §4

YBX1 (Homo sapiens, UniProt P67809), sequence (P67809 whole entry): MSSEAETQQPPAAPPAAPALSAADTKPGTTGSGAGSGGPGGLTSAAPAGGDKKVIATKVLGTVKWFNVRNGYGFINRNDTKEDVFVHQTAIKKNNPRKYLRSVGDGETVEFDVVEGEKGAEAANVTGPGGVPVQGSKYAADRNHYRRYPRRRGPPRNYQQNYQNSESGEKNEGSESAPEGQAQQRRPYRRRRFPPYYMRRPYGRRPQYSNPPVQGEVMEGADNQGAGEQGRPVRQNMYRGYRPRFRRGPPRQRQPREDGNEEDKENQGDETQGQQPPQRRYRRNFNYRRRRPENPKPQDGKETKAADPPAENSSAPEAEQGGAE

Molecule | cancer cell number in comparison with Control 1 ([1]; 50 μM) | cancer cell number in comparison with Control 1 ([1]; 100 μM) | cancer cell number compared to controls ([1]; two biological replicate controls, unpaired t test) | SOX9 mean relative expression (SOX9) | ANG mean relative expression (ANG) | HDAC4 mean relative expression (HDAC4) | decrease in nuclear area compared to untreated tumour spheres [2] | phenotypic effect (nuclear and F-actin histology, inverted microscopy) [2] | nuclear area of tumour spheres ([2]; n=47 nuclei, untreated 488±12.4 μm^2 (n=230)) [μm^2] | TP53 mean relative expression (TP53) | PTHLP expression (PTHLH) | RUNX2 mean relative expression (RUNX2) | IHH mean relative expression (IHH) | binding to YBX1 (YBX1 [3]) | YBX1 mean relative expression (YBX1 [4])
O=C(O)C1C2C=CC(C2)C1C(=O)Nc1ccc(Cl)c(Cl)c1 (stereo not shown) [CADD522, 3-(N-(3,4-dichlorophenyl)carbamoyl)-5-norbornene-2-carboxylic acid] | about 70% | about 30% | significant reduction of cancer cell number |  |  |  |  |  |  |  |  |  |  |  | 
tRF-Gly-TCC mimic: RNA mimic, sequence GCGUUGGUGGUAUAGUGGUGAGCAUAGCUGCC (listed as RNA, chemistry not given here) |  |  |  | remains at a reduced expression | greatly reduced | increases further | more than two-fold decrease in nuclear area | low cancer cell number, shrunken nuclei and visible changes to morphology | 215±16.8 | reduces to be consistent with control tissues | lost | reduced to the same level of expression as control tissue | greatly reduced |  | 
TRF-Gly-TCC: endogenous tRNA derived fragment containing a SCUBYC sequence motif (GCGUUGGUGGUAUAGUGGUGAGCAUAGCUGCC; listed as RNA, chemistry not fully specified) |  |  |  |  |  |  |  |  |  |  |  | reduces RUNX2 expression to control levels |  | substantial binding | increased expression
